Data reported in US20180000085A1, “USE OF PICOLINAMIDE COMPOUNDS WITH FUNGICIDAL ACTIVITY” (DOW AGROSCIENCES LLC, priority 2014, published 2018).

Assays:
Assay type in all cases: in vivo
Puccinia triticina = experiment: Wheat brown rust (PUCCRT) disease control on wheat seedlings; details: for PUCCRT 1DP, LV activity at 125.1 g/H (% Control rating) / PUCCRT 3DC, LV activity at 125.1 g/H (% Control rating): low volume application
Zymoseptoria tritici = experiment: Leaf blotch of wheat (SEPTTR) disease control on wheat seedlings; details: for SEPTTR 1DP, LV activity at 125.1 g/H (% Control rating) / SEPTTR 3DC, LV activity at 125.1 g/H (% Control rating): low volume application
Alternaria solani = experiment: Tomato early blight (ALTESO) disease control; design: key: A: > 80; B: ≤ 80; C: Not Tested; D: No Activity Observed in the Reported Assay; details: 100 ppm, 1 Day Protectant
Procedure: All fungicides were evaluated using the aforementioned method for their activity vs. all target diseases, unless stated otherwise. Wheat leaf blotch and brown rust activity were also evaluated using track spray applications, in which case the fungicides were formulated as EC formulations, containing 0.1% Trycol 5941 in the spray solutions. Wheat plants (variety Yuma) were grown from seed in a greenhouse in 50% mineral soil/50% soil-less Metro mix until the first leaf was fully emerged, with 7-10 seedlings per pot. These plants were inoculated with an aqueous spore suspension of Zymoseptoria tritici either prior to or after fungicide treatments. After inoculation the plants were kept in 100% relative humidity (one day in a dark dew chamber followed by two to three days in a lighted dew chamber at 20° C.) to permit spores to germinate and infect the leaf. The plants were then transferred to a greenhouse set at 20° C. for disease to develop. When disease symptoms were fully expressed on the 1st leaves of untreated plants, infection levels were assessed on a scale of 0 to 100 percent disease severity. Percent disease control was calculated using the ratio of disease severity on treated plants relative to untreated plants. Example J: Evaluation of Fungicidal Activity: Tomato Early Blight (Alternaria solani; Bayer Code […]) Tomato plants (variety Outdoor Girl) were propagated in soil-less Metro mix, with each pot having one plant, and used when 12 to 14 days old. Test plants were inoculated with an aqueous spore suspension of Alternaria solani 24 hr after fungicide treatments. After inoculation the plants were kept in a dew room at 22° C. with 100% relative humidity for 48 h to permit spores to germinate and infect the leaf. The plants were then transferred to a growth room at 22° C. for disease to develop. Fungicide formulation, application and disease assessment on the sprayed leaves followed the procedures as described in the Example A.

Structure (SMILES) | PUCCRT 1DP disease control rating, HV activity (Puccinia triticina; HV application at 100 ppm, 1 Day Protectant, wheat brown rust) | PUCCRT 3DC disease control rating, HV activity (Puccinia triticina; HV application at 100 ppm, 3 Day Curative, wheat brown rust) | PUCCRT 1DP disease control rating, LV activity (Puccinia triticina; Low volume application at 125.1 g/H, 1 Day Protectant, wheat brown rust) | PUCCRT 3DC disease control rating, LV activity (Puccinia triticina; Low volume application at 125.1 g/H, 3 Day Curative, wheat brown rust) | SEPTTR 1DP disease control rating, HV activity (Zymoseptoria tritici; HV application at 100 ppm, 1 Day Protectant, wheat leaf blotch) | SEPTTR 3DC disease control rating, HV activity (Zymoseptoria tritici; HV application at 100 ppm, 3 Day Curative, wheat leaf blotch) | SEPTTR 1DP disease control rating, LV activity (Zymoseptoria tritici; Low volume application at 125.1 g/H, 1 Day Protectant, wheat leaf blotch) | SEPTTR 3DC disease control rating, LV activity (Zymoseptoria tritici; Low volume application at 125.1 g/H, 3 Day Curative, wheat leaf blotch) | ALTESO disease control, 1DP (Alternaria solani) | PUCCRT 1DP, LV activity at 125.1 g/H (% Control rating) (Puccinia triticina; 1 Day Protectant) | PUCCRT 3DC, LV activity at 125.1 g/H (% Control rating) (Puccinia triticina; 3 Day Curative) | SEPTTR 1DP, LV activity at 125.1 g/H (% Control rating) (Zymoseptoria tritici; 1 Day Protectant) | SEPTTR 3DC, LV activity at 125.1 g/H (% Control rating) (Zymoseptoria tritici; 3 Day Curative)
CCCOC(CC)C(Oc1ccccc1)C(C)OC(=O)C(C)NC(=O)c1nccc(OC)c1OCOC(C)=O (centres unmarked) [Cmpd 446] | A (> 80) | A (> 80) | A (> 80) | A (> 80) | A (> 80) | A (> 80) | A (> 80) | A (> 80) | D | – | – | – | –
COc1ccnc(C(=O)N[C@@H](C)C(=O)O[C@@H](C)[C@H](Oc2ccccc2)C(C)C)c1OCOC(C)=O [Cmpd 475] | – | – | – | – | – | – | – | – | B (≤ 80) | A (> 80) | A (> 80) | A (> 80) | A (> 80)
CC[C@@H](CCOC)[C@@H](Oc1ccccc1)[C@H](C)OC(=O)[C@H](C)NC(=O)c1nccc(OC)c1OCOC(C)=O [Cmpd 476] | – | – | – | – | – | – | – | – | B (≤ 80) | A (> 80) | A (> 80) | A (> 80) | A (> 80)
CCC(CC)[C@@H](Oc1ccccc1)[C@H](C)OC(=O)[C@H](C)NC(=O)c1nccc(OC)c1OCOC(C)=O [Cmpd 477] | – | – | – | – | – | – | – | – | B (≤ 80) | A (> 80) | A (> 80) | A (> 80) | A (> 80)
COc1ccnc(C(=O)N[C@@H](C)C(=O)O[C@@H](C)[C@H](Oc2ccccc2)C(C)C)c1OC(C)=O [Cmpd 478] | – | – | – | – | – | – | – | – | B (≤ 80) | A (> 80) | A (> 80) | A (> 80) | A (> 80)
CCC(CC)[C@@H](Oc1ccccc1)[C@H](C)OC(=O)[C@H](C)NC(=O)c1nccc(OC)c1OC(C)=O [Cmpd 479] | – | – | – | – | – | – | – | – | B (≤ 80) | A (> 80) | A (> 80) | A (> 80) | A (> 80)
CC[C@@H](CCOC)[C@@H](Oc1ccccc1)[C@H](C)OC(=O)[C@H](C)NC(=O)c1nccc(OC)c1OC(C)=O [Cmpd 482] | – | – | – | – | – | – | – | – | B (≤ 80) | A (> 80) | A (> 80) | A (> 80) | A (> 80)
COc1ccnc(C(=O)N[C@@H](C)C(=O)O[C@@H](C)[C@H](Oc2ccccc2)c2ccccc2)c1OCOC(C)=O [Cmpd 500] | – | – | – | – | – | – | – | – | B (≤ 80) | A (> 80) | A (> 80) | A (> 80) | A (> 80)
